Results published in patent publication US20130065964A1, “PERITONEAL DIALYSIS SOLUTION” (UNIVERSIDAD DE CASTILLA LA MANCHA, priority 2010, published 2013).

Tested on: peritoneum
Assay: Chronic peritoneal dialysis in rats, peritoneal equilibrium test (PET)
Format: in vivo, rat
Conditions: rats dialysed daily for four weeks with PDF, aliskiren 0.1 or 1 mg/Kg, FIGS. 12 and 13
Experimental: The rats were exposed daily for four weeks to carrier (saline serum), 1.5% PDF, 2.3% PDF or 4.5% PDF supplemented by carrier, 0.1 mg/Kg aliskiren or 1 mg/Kg aliskiren. The data are expressed as mean±SEM, n=6 rats per group. * p<0.05, compared to the group treated with carrier in the absence of aliskiren (carrier). # p<0.05, compared to their respective groups treated with PDFs in the absence of aliskiren. […] The rats were exposed daily for four weeks to carrier (saline serum), 1.5% PDF, 2.3% PDF or 4.5% PDF supplemented by carrier, 0.1 mg/Kg aliskiren or 1 mg/Kg aliskiren. The data is expressed as mean media±SEM, n=6 rats per group. * p<0.05, compared to the group treated with carrier in the absence of aliskiren (carrier). # p<0.05, compared to their respective groups treated with PDFs in the absence of aliskiren. […] Their body weight was measured at the start and end of the experimental period. […] The concentrations of creatinine and glucose in the serum and dialysate were measured using enzymatic methods. The peritoneal transport of solutes was calculated, on one hand, as the glucose concentration in the dialysate 2 hours after the PET relative to the initial glucose concentration in the PDF (D2/D0 glucose) and, on the other, as the dialysate/plasma creatinine concentration ratio (D2/P2 creatinine) 2 h after the PET. […]

`COCCCOc1cc(C[C@@H](C[C@H](N)[C@@H](O)C[C@H](C(=O)NCC(C)(C)C(N)=O)C(C)C)C(C)C)ccc1OC` [aliskiren] was tested, and the “peritoneal damage in vivo (D2/D0 glucose, D2/P2 creatinine)” value was “reduced peritoneal damage”.
